This is an account of results in US20180264134A1, “A COMPOSITION OF GOLD NANOPARTICLES HAVING ANTIMICROBIAL PEPTIDES BOUND ON THEIR SURFACE FOR USE THE TREATMENT OF WOUND HEALING OR IN THE TREATMENT OF ISCHEMIC OR VASCULAR DISEASES OR IN THE TREATMENT OF SKIN DISORDERS” (priority 2015, published 2018).

Format in all cases: cell-based, human
In assay [1] the test system is EGFR. Put plainly: EGFR phosphorylation in HaCaT (ELISA). As to conditions: LL37 5 μg/mL; LL37-Au NPs 15 or 200 μg/mL. The method, then:
(§1) In an embodiment the detection of EGFR and ERK1/2 phosphorylation, can be perform by: the activation of EGFR receptor in HaCaT (80% confluency, in 6-well plates) was induced by starving the cells for 24 h in DMEM supplemented with 1% (v/v) penicillin and adding soluble LL37, LL37-Au NPs and Au NPs for a given period of time. Following treatment, the plates were immersed in ice and the medium was discarded. Then the proteins were isolated from the cells . . . . The levels of EGFR (phosphorylated EGFR and total EGFR) were determined by ELISA kit (R&D Systems). The activation of ERK signaling pathways in HaCaT (80% confluency, in one 96-well cell culture clear-bottom black microplate) were obtained starving the cells for 24 h in DMEM supplemented with 1% (v/v) penicillin and then stimulating them with soluble LL37 (5 μg/mL), LL37-Au NPs and Au NPs (200 μg/mL). After treatments the level of ERK were determined using a phosphoprotein and total protein ELISA kit (R&D Systems ref. KCB1018) according to the manufacture's instructions. Data were acquired with a BioTek synergy MX microplate reader.

The subject of assay [2] is HaCaT cells. Put plainly: Whole-cell patch-clamp recordings of HaCaT cells. The method, then:
In an embodiment, the NP bioactivity was carried out as follows: electrophysiological recordings. Whole-cell patch-clamp recordings of HaCaT cells were performed using borosilicate glass patch pipettes with a resistance of 2-5 MΩ and compensating the series resistance by 50-60% with a List EPC-7 amplifier, as described previously^56. The pipettes were filled with (in mM): 135 K-gluconate, 10 CsCl, 0.4 NaH2PO4, 0.73 CaCl2, 1 MgCl2, 1 EGTA, and 14 HEPES (pH 7.4). The external solution contained (mM): 140 NaCl, 3 KCl, 2 CaCl2, 1 MgCl2, 15 HEPES and 10 glucose (pH 7.4). Cells were rapidly perfused as previously described and all experiments were carried out at RT (22-25° C.). The currents were recorded at −70 mV, filtered (2-pole Butterworth filter, −12 dB/octave) and digitized to a personal computer at a sampling rate of 1 kHz for analysis using pCLAMP software (AXON instruments). Charge transfer was calculated by the integration of the area under the current in the first 100 s (Q100) from the beginning of the exposure to Au NPs, LL37 or LL37-Au NPs in the absence or presence of apyrase (darker background; 20 U/mL; Sigma).

Assay [3] relates to ERK1/2. Put plainly: ERK1/2 phosphorylation in HaCaT (ELISA). As to conditions: LL37 5 μg/mL; LL37-Au NPs 200 μg/mL. The method, then: as §1
For orientation: ELISA stands for enzyme-linked immunosorbent assay.

Structures are written as SMILES.

For `CC[C@H](C)[C@H](NC(=O)[C@H](CCCCN)NC(=O)[C@H](CCC(=O)O)NC(=O)[C@H](CCCCN)NC(=O)[C@H](CO)NC(=O)[C@H](CCCCN)NC(=O)[C@H](CCCNC(=N)N)NC(=O)[C@H](Cc1ccccc1)NC(=O)[C@H](Cc1ccccc1)NC(=O)[C@H](CC(=O)O)NC(=O)CNC(=O)[C@H](CC(C)C)NC(=O)[C@@H](N)CC(C)C)C(=O)NCC(=O)N[C@@H](CCCCN)C(=O)N[C@@H](CCC(=O)O)C(=O)N[C@@H](Cc1ccccc1)C(=O)N[C@@H](CCCCN)C(=O)N[C@@H](CCCNC(=N)N)C(=O)N[C@H](C(=O)N[C@H](C(=O)N[C@@H](CCC(N)=O)C(=O)N[C@@H](CCCNC(=N)N)C(=O)N[C@H](C(=O)N[C@@H](CCCCN)C(=O)N[C@@H](CC(=O)O)C(=O)N[C@@H](Cc1ccccc1)C(=O)N[C@@H](CC(C)C)C(=O)N[C@@H](CCCNC(=N)N)C(=O)N[C@@H](CC(N)=O)C(=O)N[C@@H](CC(C)C)C(=O)N[C@H](C(=O)N1CCC[C@H]1C(=O)N[C@@H](CCCNC(=N)N)C(=O)N[C@H](C(=O)N[C@@H](CCC(=O)O)C(=O)N[C@@H](CO)C(=O)N[C@@H](CS)C(N)=O)[C@@H](C)O)C(C)C)[C@@H](C)CC)C(C)C)[C@@H](C)CC` [LL37], in assay [1], the “persistence of EGFR phosphorylation” value is on record as 10 min and the “time of peak EGFR phosphorylation” value worked out at 8 min. Further, in assay [2] (apyrase 20 U/mL), the “effect of apyrase on charge transfer / inward current” value was “no decrease”. The inward current entry in assay [2] (holding potential −70 mV) was “elicited an inward current”. Moreover, the “time of peak ERK1/2 phosphorylation” value in assay [3] is 4 min.
